Measured values from publication PMC8047731 (ACS Omega, 2021).

Experiments:
[1] = system: HeLa cells; test: Cisplatin potentiation assay; format: cell-based; settings: 25 μM compound + […] μM cisplatin (LD10), 72 h, alamarBlue
[2] = system: short duplex DNA substrate (EtBr-DS); test: Ethidium bromide displacement assay; format: binding; settings: compound at exonuclease IC50 of SNM1A, 10 min
[3] = system: nuclease; settings: cited from earlier work
[4] = biological target: T1, SNM1A exonuclease activity (Homo sapiens, UniProt Q6PJP8); test: Gel-based IC50 determination, SNM1A exonuclease activity; settings: 0.2 nM SNM1A, 110 nM 5P-1F, 60 min, 37 °C, triplicate
T1 sequence (Q6PJP8 698-1040): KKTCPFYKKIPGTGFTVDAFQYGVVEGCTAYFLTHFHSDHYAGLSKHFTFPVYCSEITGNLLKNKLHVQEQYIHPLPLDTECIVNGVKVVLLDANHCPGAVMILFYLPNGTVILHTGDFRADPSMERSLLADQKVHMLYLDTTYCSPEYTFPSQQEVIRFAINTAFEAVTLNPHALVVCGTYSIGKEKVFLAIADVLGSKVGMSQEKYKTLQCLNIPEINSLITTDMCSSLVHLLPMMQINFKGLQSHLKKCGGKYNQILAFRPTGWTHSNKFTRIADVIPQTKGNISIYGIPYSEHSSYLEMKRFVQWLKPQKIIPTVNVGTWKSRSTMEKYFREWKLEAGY

[5] = biological target: T2, SNM1A (Homo sapiens, UniProt Q6PJP8); test: Gel-based secondary screen validation; format: biochemical; settings: 25 and 6.25 μM compound
T2 sequence (Q6PJP8 698-1040): T1 sequence (Q6PJP8 698-1040)

Q: Which “Cell survival with sublethal cisplatin (potentiation)” value [1] does the source give for `O=c1cc(-c2ccc(O)c(-c3c(O)cc(O)c4c(=O)cc(-c5ccc(O)cc5)oc34)c2)oc2cc(O)cc(O)c12` [Compound 13, AMENTOFLAVONE] here?
A: The value was “reduced cell survival”.

Q: What about the “Displacement of ethidium bromide from DNA” value (shortened to “Displacement”) [2] of the same compound?
A: Its value is “do not appear to significantly displace ethidium bromide”.

Q: With `O=C(O)C1=CC(=C(c2ccc(O)c(C(=O)O)c2)c2ccc(O)c(C(=O)O)c2)C=CC1=O` [Compound 20, AURINTRICARBOXYLIC ACID] as the compound, how does the “Displacement” value [2] read?
A: Its value is “apparent nonspecific interactions with DNA”.

Q: And the Nuclease inhibition [3]?
A: The Nuclease inhibition was “nonspecific nuclease inhibitor”.

Q: And the “Exonuclease IC50” value [4]?
A: Its value is “nanomolar range”.

Q: With `Nc1c(S(=O)(=O)O)cc(Nc2ccc(Nc3nc(Cl)nc(Nc4cccc(S(=O)(=O)O)c4)n3)c(S(=O)(=O)O)c2)c2c1C(=O)c1ccccc1C2=O` [Compound 30, REACTIVE BLUE 2] as the compound, how does the “Cell survival with sublethal cisplatin (potentiation)” value [1] read?
A: Its value is “reduced cell survival”.

Q: What about the “Displacement” value [2] of the same compound?
A: The value was “apparent nonspecific interactions with DNA”.

Q: For `O=C(O[C@@H]1Cc2c(O)cc(O)cc2O[C@@H]1c1cc(O)c(=O)c2c(O)c(O)cc([C@H]3Oc4cc(O)cc(O)c4C[C@H]3OC(=O)c3cc(O)c(O)c(O)c3)c2c1)c1cc(O)c(O)c(O)c1` [Compound 40, […]], which “Displacement” value [2] is on record?
A: Its value is “apparent nonspecific interactions with DNA”.

Q: For `C[C@@H]1CC[C@@]23CCC4(C)[C@@](C=CC5[C@@]6(C)CCC(=O)C(C)(C)C6CC[C@]54C)(OC2=O)C3[C@H]1C` (some centres unmarked) [Compound 44, 3-OXOURSAN (28-13)OLIDE], which “Assay interference in the gel-based screen (reason for exclusion)” value [5] is on record?
A: Its value is “internal fluorescence”.

Q: With `O=C1OC2(c3ccc(O)cc3Oc3cc(O)ccc32)c2ccccc21` [Compound 54, FLUORESCEIN] as the compound, how does the “Assay interference in the gel-based screen (reason for exclusion)” value [5] read?
A: The value was “internal fluorescence”.

Q: With `COC(=O)c1cc(O)c(=O)c2c(O)c(O)ccc2c1` [Compound 61, METHYL 7-DESHYDROXYPYROGALLIN-4-CARBOXYLATE] as the compound, how does the “Displacement” value [2] read?
A: The value was “do not appear to significantly displace ethidium bromide”.
